Assays:
Candida albicans = test: TTD testing with varied iron and O2 (Example 2); type: cell-based
Method: (§1) TTD testing was performed using 28 organisms with a target CFU of 10-100 in blood volumes of 0 or 0.5 mL, organism dependent, 3 mL, and 10 mL. The organisms tested are illustrated in FIG. 20. Four different concentrations of iron provided as ferric ammonium citrate (0 g/L, 0.01 g/L, 0.035 g/L, and 0.06 g/L) in the media otherwise as described in Example 1, and three different concentrations of oxygen (47%, 54%, and 60%) were tested. FIG. 21 illustrates the combination of conditions tested. The testing was run in replicates of three. Prior to the day of testing, the bottles were racked and labeled, and the organisms were sub-cultured accordingly. Each organism to be tested was grown overnight on an appropriate plated medium. Each organism was carefully checked for purity. […] The organism is then re-cultured. 0.1 mL of the final organism dilution was dispensed and spread on the appropriate agar for plate counts. Using aseptic technique, each bottle containing 30 ml of microbial growth media was amended with 0, 0.5, 3, or 10 mL of bagged human blood using the appropriate syringe and needle. Paired sets were inoculated with blood from the same donor unit at the same time. The bottles were then inoculated with 0.1 mL of the appropriate organism. After inoculation, the bottles were loaded onto a BACTEC FX instrument using a standard protocol length of 120 hours. Paired bottles were entered into the FX at the same time in adjacent positions. […] The data from each experiment was organized for statistical testing via a general linear model analysis of variance (ANOVA). Blood volumes of 0 or 0.5, 3, and 10 mL were recoded as 0, 3, and 10 mL to help balance the design. Additional models were assessed holding the blood volume constant. FIG. 56 illustrates the results of the ANOVA analyzing the effects of the tested conditions on TTD. FIG. 57 illustrates the results of the ANOVA parameter estimates and prediction equation. There was an expectation that only the yeast category would show a significant effect with the iron addition. Other categories were monitored to ensure no adverse effects.

Candida glabrata = test: TTD testing with varied iron and O2 (Example 2); type: cell-based
Method: as §1

[1] = test system: yeast and other microorganisms
Method: as §1

[2] = iron 0, 0.01, 0.035, 0.06 g/L tested

Compound	optimal gaseous headspace O2 concentration for TTD (Candida albicans; 47%, 54%, 60% O2 tested)	effect on TTD of increasing oxygen concentration in headspace gas (Candida albicans; from 47% to 60% O2)	optimal gaseous headspace O2 concentration for TTD (Candida glabrata; 47%, 54%, 60% O2 tested)	effect on TTD of increasing oxygen concentration in headspace gas (Candida glabrata; from 47% to 60% O2)	optimal gaseous headspace O2 concentration for TTD [1]	effect on TTD of increasing oxygen concentration in headspace gas ([1]; from 47% to 60% O2)	optimal iron concentration for TTD (Candida albicans; [2])	effect on TTD of increasing iron concentration in the media (Candida albicans; iron from 0 to 0.06 g/L)	optimal iron concentration for TTD (Candida glabrata; [2])	effect on TTD of increasing iron concentration in the media (Candida glabrata; iron from 0 to 0.06 g/L)	optimal iron concentration for TTD [1, 2]	effect on TTD of increasing iron concentration in the media ([1]; iron from 0 to 0.06 g/L, blood 0/0.5, 3, 10 mL)	effect of iron on TTD, ANOVA result ([1]; yeast category, general linear model ANOVA)
O=O [oxygen]	about 54%	decreased the TTD	about 54%	decreased the TTD	about 54%	decreased the TTD	–	–	–	–	–	–	–
ferric ammonium citrate [iron]	–	–	–	–	–	–	about 0.035 g/L	decreased the TTD	about 0.035 g/L	decreased the TTD	about 0.035 g/L	decreased the TTD	lowers the TTD of yeasts
